Reference: PubChem BioAssay (NCI)
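Exposure lasted 48 hours, with cells grown in 96-well plates and compounds tested at five concentrations. The concentration for full growth arrest is given as TGI.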

Columns and labels:
Assay in all cases: growth of human tumour cells (NCI), 48 h
[1] = tested on: OVCAR-4 ovarian
[2] = tested on: M14 melanoma
[3] = tested on: SK-OV-3 ovarian
[4] = tested on: HT29 colon
[5] = tested on: SF-268 CNS
[6] = tested on: NCI/ADR-RES ovarian
[7] = tested on: LOX IMVI melanoma
[8] = tested on: HL-60(TB) leukemia
[9] = tested on: SK-MEL-5 melanoma
[10] = tested on: NCI-H226 lung
[11] = tested on: TK-10 renal
[12] = tested on: A549 NSCLC
[13] = tested on: ACHN renal

Row | SMILES | TGI [1] [µM] | TGI [2] [µM] | TGI [3] [µM] | TGI [4] [µM] | TGI [5] [µM] | TGI [6] [µM] | TGI [7] [µM] | TGI [8] [µM] | TGI [9] [µM] | TGI [10] [µM] | TGI [11] [µM] | TGI [12] [µM] | TGI [13] [µM]
1 | COC(=O)/C=C\S/C(=C(/c1ccccc1)n1ccc(C(=O)OC)n1)c1ccccc1 | > 100 | > 100 | 50.8 | > 100 | 39.4 | > 100 | > 100 | > 100 | > 100 | > 100 | > 100 | > 100 | 20.1
2 | COc1cc2c(cc1O)CC[n+]1cc3c(OC)c(OC)ccc3cc1-2 | > 100 | > 100 | > 100 | > 100 | > 100 | > 100 | > 100 | > 100 | > 100 | > 100 | > 100 | > 100 | > 100
3 | COc1ccc(/C=N/Nc2nc3ccccc3c(=O)n2-c2ccccc2)c(OCc2ccccc2)c1 | > 100 | > 100 | > 100 | > 100 | > 100 | > 100 | > 100 | > 100 | > 100 | > 100 | > 100 | > 100 | > 100
4 | COc1cc2nc(-c3c(F)cccc3F)n(Cc3c(F)cccc3F)c2cc1Cc1c(F)cccc1F | 10.9 | > 100 | > 100 | > 100 | > 100 | > 100 | > 100 | > 100 | > 100 | > 100 | > 100 | > 100 | > 100
5 | COc1ccc(CN2C(=O)C(=O)N(C)C2=O)c2ccccc12 | > 10 | > 10 | > 10 | > 10 | > 10 | > 10 | > 10 | > 10 | > 10 | > 10 | > 10 | > 10 | > 10
6 | CC(C)Cc1c(C#N)c(C#N)c(N)n1Cc1ccccc1 | > 100 | > 100 | > 100 | > 100 | > 100 | > 100 | > 100 | > 100 | > 100 | > 100 | > 100 | > 100 | > 100
7 | CC1=NC(C)(C)N(O)C1(C)C | > 100 | > 100 | > 100 | > 100 | > 100 | > 100 | > 100 | > 100 | > 100 | > 100 | > 100 | > 100 | > 100
8 | CC(C)(C)OC(=O)c1ccc(NCc2cc(O)ccc2O)cc1 | 5.59 | 7.35 | 44.3 | 33.7 | 17.3 | 12.5 | 13.5 | 4.08 | 13.1 | 8.64 | 6.07 | > 89.4 | 3.46
9 | O=CN(O)CC(=O)O | > 100 | > 100 | > 100 | > 100 | > 100 | > 100 | > 100 | > 100 | > 100 | > 100 | > 100 | > 100 | > 100
10 | CC1=C(C(=O)NNC(=O)CC#N)CC(C(=O)NNC(=O)CC#N)=C(C)N1 | > 100 | > 100 | > 100 | > 100 | > 100 | > 100 | > 100 | > 100 | > 100 | > 100 | > 100 | > 100 | > 100
11 | CCOC1NC(=O)c2ccccc21 (stereo not given) | > 100 | > 100 | > 100 | > 100 | > 100 | > 100 | > 100 | > 100 | > 100 | > 100 | > 100 | > 100 | > 100
12 | Cc1cc2c(cc1Cl)SC(NNc1cnc3ccccc3n1)=NS2(=O)=O | > 100 | > 100 | > 100 | > 100 | > 100 | > 100 | > 100 | > 100 | > 100 | > 100 | > 100 | > 100 | > 100
13 | O=c1c(Cc2ccccc2)c(-c2ccccc2)[nH]n1C1=NCCN1 | > 100 | > 100 | > 100 | 57 | > 100 | > 100 | 38.1 | > 100 | > 100 | > 100 | > 100 | > 100 | > 100
14 | CN1c2ccccc2C(=O)NC12CCN(CC1COc3ccccc3O1)CC2 (stereo not given) | > 100 | > 100 | > 100 | > 100 | > 100 | > 100 | > 100 | > 100 | 41.5 | 87.4 | > 100 | > 100 | > 100
15 | Cc1ccc(-n2cc(-c3ccc(Cl)cc3)c3c2N=CN2NC(c4ccco4)=NC32)cc1 (stereo not given) | 4.03 | > 100 | 16 | > 100 | 83.6 | 86.6 | > 100 | > 100 | > 100 | 68.6 | 28.7 | > 100 | 24.5
16 | COC(=O)C1=C(C(=O)OC)C2(C)CCC(=O)C1O2 (stereo not given) | > 10 | > 10 | > 10 | > 10 | > 10 | > 10 | > 10 | > 10 | > 10 | > 10 | > 10 | > 10 | > 10
17 | O=C(/C=C1\C[C@H]2C=Nc3ccccc3C(=O)N2C1)NCCCCCNC(=O)/C=C1\C[C@H]2C=Nc3ccccc3C(=O)N2C1 | 26.4 | 12.1 | 30.3 | 27.4 | 18.5 | 55.9 | 4.47 | 6.13 | > 51 | > 70.4 | 10.5 | 54.6 | 3.88
18 | COP(=O)(CC(=O)C1OC(OCc2ccccc2)C(OCc2ccccc2)C(OCc2ccccc2)C1OCc1ccccc1)OC (stereo not given) | 8.89 | 70 | > 100 | 24.2 | > 100 | 90.2 | 32.3 | 23.7 | 16.8 | 54 | 79.8 | > 100 | 23.2

Row | SMILES | TGI [1] [µM] | TGI [2] [µM] | TGI [3] [µM] | TGI [4] [µM] | TGI [5] [µM] | TGI [6] [µM] | TGI [7] [µM] | TGI [8] [µM] | TGI [9] [µM] | TGI [10] [µM] | TGI [11] [µM] | TGI [12] [µM] | TGI [13] [µM]
19 | Nc1n[nH]c2ccccc12 | > 100 | > 100 | > 100 | > 100 | > 100 | > 100 | > 100 | > 100 | > 100 | > 100 | > 100 | > 100 | > 100
20 | Cc1cn(C2CC(OC(c3ccccc3)(c3ccccc3)c3ccccc3)C(COC(c3ccccc3)(c3ccccc3)c3ccccc3)O2)c(=O)[nH]c1=O (stereo not given) | > 100 | > 100 | > 100 | > 100 | > 100 | > 100 | > 100 | > 100 | > 100 | 88.7 | > 100 | > 100 | > 100
21 | CCCC[C@@H]1CCN2C[C@@H](O)[C@@H](O)[C@H]2[C@@H]1O | > 100 | > 100 | > 100 | > 100 | > 100 | > 100 | > 100 | > 100 | > 100 | > 100 | > 100 | > 100 | > 100
22 | CCOC(=O)c1ccc(C(=O)/C(C(=O)OC(C)(C)C)=C2\CCCN2C)n1C | > 100 | > 100 | 95.1 | > 100 | > 100 | > 100 | > 100 | 70.5 | 52.9 | > 100 | > 100 | > 100 | > 100
23 | CC1OC(n2cc(F)c(=O)[nH]c2=O)C(O[Si](C)(C)C(C)(C)C)C1O[Si](C)(C)C(C)(C)C (stereo not given) | 16.8 | 45 | 32 | 23.3 | 29.8 | 27.7 | 42 | 45.1 | 28.2 | 31.1 | 22.9 | 54.2 | 26.9
24 | CC[P+](C#Cc1ccccc1)(c1ccccc1)c1ccccc1 | 12.3 | 3.56 | 9.43 | 6.98 | 8.71 | > 100 | 4.19 | 1.05 | 2.84 | 8.69 | 7.09 | 14.8 | 13
25 | COC(=O)C(CCSC)NC(=O)CSc1nnc(COc2ccc(Cl)cc2)n1-c1ccccc1 (stereo not given) | 31.8 | 33.5 | 43.2 | 34.7 | 34.5 | 39.2 | 32.4 | 38.6 | 32.7 | 43.3 | 33.3 | > 70.8 | 32.1
26 | CC(O)(C(=O)N(O)c1ccc(Cl)cc1)c1ccc(Cl)cc1 (stereo not given) | > 100 | > 100 | 97.5 | > 100 | > 100 | 86.6 | > 100 | 35.9 | 48.9 | > 100 | > 100 | > 100 | 62.3
27 | CCN(C(=O)N[C@H](C(=O)N[C@@H](C)C(=O)OC)C(C)C)c1ccccc1 | > 100 | > 100 | > 100 | > 100 | > 100 | > 100 | > 100 | > 100 | > 100 | > 100 | 98.6 | > 100 | > 100
28 | C[C@@H]1C(=O)CC2(O)[C@@]13C[C@@H](OC(=O)[C@@H]3O)[C@@H](C)[C@@]21COC1=O (stereo not given in full) | > 100 | > 100 | > 100 | > 100 | > 100 | > 100 | > 100 | > 100 | > 100 | > 100 | > 100 | > 100 | > 100
29 | O=c1cc(-c2ccccc2F)[nH]c2cc3c(cc12)OCO3 | > 100 | 5.1 | 14.2 | 0.643 | > 100 | 0.246 | > 78.8 | 1.09 | 4.41 | 1.81 | 98.2 | > 100 | > 100
30 | CCOC(=O)Cc1nn2c(=O)cc(C)nc2s1 | > 100 | > 100 | > 100 | > 100 | > 100 | > 100 | > 100 | > 100 | > 100 | > 100 | > 100 | > 100 | > 100
31 | CC12CCC(C/C1=N\NC(N)=O)C2(C)C (stereo not given) | > 100 | > 100 | > 100 | > 100 | > 100 | > 100 | > 100 | > 100 | > 100 | > 100 | > 100 | > 100 | > 100
32 | CN(C)c1nc(=NCc2ccccn2)ss1 | > 10 | > 10 | > 10 | > 10 | > 10 | > 10 | 6.46 | 4.95 | > 10 | > 10 | > 10 | > 10 | > 10
33 | COc1cc(/C=C/C(=O)O)ccc1OS(=O)(=O)O | > 100 | > 100 | > 100 | > 100 | > 100 | > 100 | > 100 | > 100 | > 100 | > 100 | > 100 | > 100 | > 100
34 | O=C(NCCCNCCCCNCCCNC(=O)C(F)(F)F)C(F)(F)F | > 100 | > 100 | > 100 | > 100 | > 100 | > 100 | > 100 | > 100 | > 100 | > 100 | > 100 | > 100 | > 100
35 | COn1cc(CO)c2ccccc21 | > 100 | > 100 | > 100 | > 100 | > 100 | > 100 | > 100 | > 100 | > 100 | 6.35 | > 46.2 | > 100 | > 100
